This is an account of results in PubChem BioAssay AID651993 (Sanford-Burnham Center for Chemical Genomics, 2013).

The subject of this assay is C. elegans VP596 Phsp-16.2 GFP/RFP heat-shock reporter. The assay is described as follows: inhibitors of hsp-16.2 heat-shock response – whole organism, C. elegans VP596, GFP/RFP ratio fluorescence, counter-screen for SKN-1 inhibitor project, SAR follow-up (AID 651993). A general note: A counterscreen serves to expose hits that act by an unwanted route or on another target.

pIC50: −log10 of the molar value. Active and inactive are the calls of the source.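 The calls were made as follows: active = compounds with mean IC50 at or below 50 µM in this heat-shock counterscreen, flagging likely artifacts; inactive = the rest.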

By IC50 is commonly meant the concentration that inhibits the measured activity by half. In the case of `CCOC(=O)c1c(-c2ccc(-c3ccccc3)cc2)csc1NC(=O)CNCCN(C)C`, the IC50 is > 64 µM (inactive). On the same count and under the same terms, for `Fc1ccc(-c2csc(-c3ccncc3)n2)cc1` the value was > 64 µM (inactive); for `O=C(Nc1nc(-c2ccc(Cl)s2)cs1)c1ccco1`, > 64 µM (inactive); for `c1ccc2oc(SCc3nc4ccccc4s3)nc2c1`, > 64 µM (inactive).

With `O=C(/C=C/Nc1ccc(F)c(F)c1)c1cccs1`, the IC50 was > 64 µM (inactive). Same read-out and setting: with `Cc1ccc(N=C/C(C(=O)C(F)(F)F)=C(\O)c2ccco2)cc1Cl` the figure was > 64 µM (inactive). The same measure, in the same setting: with `c1ccc(Nc2nc(-c3cccs3)cs2)nc1` the figure was > 64 µM (inactive); with `Clc1ccc(-c2nnc(-c3ccccc3)o2)c(Cl)c1`, > 64 µM (inactive); with `O=C(/C=C/Nc1ccc(Br)cc1F)c1ccco1`, > 64 µM (inactive). For orientation: pIC50 means the negative decadic logarithm of the IC50, by convention in mol/L. For the compound `Cc1nc2ccccc2cc1OCc1ccc(F)cc1`, the pIC50 was 5.04.

As to `Clc1ccc(-c2nnc(-c3ccco3)o2)cc1`, the IC50 was > 64 µM (inactive). For the compound `c1ccc(-c2nc(-c3ccncc3)no2)cc1`, the IC50 was > 64 µM (inactive). Consider `Cc1ccccc1-c1noc(-c2cccs2)n1`, for which the IC50 is > 64 µM (inactive). For the compound `O=C(Nc1nc(-c2ccc(Cl)s2)cs1)c1ccccc1`, the IC50 was > 64 µM (inactive). In the case of `Cc1ccc2nc(-c3ccc(NC(=S)NC4CC(C)(C)NC(C)(C)C4)cc3)sc2c1`, the IC50 is > 64 µM (inactive). Still for that read-out and setting: for `Brc1ccc(-c2nnc(-c3ccco3)o2)cc1` the value was > 64 µM (inactive); for `Cc1ccc(Nc2nc(-c3cccs3)cs2)nc1`, > 64 µM (inactive); for `O=C(/C=C/c1ccccc1)Nc1ccc(CN2CCOCC2)cc1`, > 64 µM (inactive).

Regarding `O=C(Nc1nc(-c2ccccc2)cs1)c1cccs1`, the IC50 is > 64 µM (inactive). As for `Brc1ccc(-c2nc(-c3ccccc3)no2)o1`, the IC50 was > 64 µM (inactive). As to `O=C(Nc1nccs1)c1ccc2ccccc2n1`, the IC50 is > 64 µM (inactive). Consider `CCOC(=O)Nc1nc(-c2ccc(F)cc2F)cs1`, for which the IC50 is > 64 µM (inactive).

In the case of `COc1ccc(C(=O)Nc2nc(-c3cccs3)cs2)cc1`, the IC50 was > 64 µM (inactive).

For `Fc1ccc(-c2csc(Nc3ccccn3)n2)cc1`, the IC50 is > 64 µM (inactive).

As for `c1ccc(-c2csc(Nc3ccccn3)n2)cc1`, the IC50 was > 64 µM (inactive). Still for that read-out and setting: with `O=C(/C=C/Nc1ccc(F)cc1F)c1cccs1` the figure was > 64 µM (inactive); with `O=C(/C=C/c1ccc(Br)cc1)c1ccc(NC2=NCCCS2)cc1`, > 64 µM (inactive); with `CC(C)c1ccc(C(=O)Nc2ccc(CN3CCOCC3)cc2)cc1`, > 64 µM (inactive). Still for that read-out and setting: for `O=C(Nc1nc(-c2ccc(Cl)s2)cs1)c1cccs1` the value was > 64 µM (inactive); for `COc1cc(CNC2CCCC2)cc(Cl)c1OCc1ccc(F)cc1`, > 64 µM (inactive); for `Fc1ccc(COc2ccc(-c3nnco3)cc2)cc1`, > 64 µM (inactive). Still for that read-out and setting: with `COc1cc(CNC(C)(C)CO)cc(Br)c1OCc1ccc(Cl)cc1` the figure was > 64 µM (inactive); with `c1ccc2sc(SCc3ccc(-c4nnco4)cc3)nc2c1`, > 64 µM (inactive). Consider `Cc1cc(OCc2cccc(Cl)c2)c(C)cc1CN1CCOCC1`, for which the IC50 is > 64 µM (inactive).

Regarding `O=C(/C=C/Nc1ccc(F)cc1F)c1ccco1`, the IC50 was > 64 µM (inactive).

As to `Fc1ccc(COc2ccc(-c3nnco3)cc2)c(Cl)c1`, the IC50 was > 64 µM (inactive).

Regarding `Cc1oc(-c2ccc(-c3ccccc3)cc2)nc1CN(C)C1CCOC1` (stereo not drawn), the IC50 was > 64 µM (inactive). As for `CCOc1cc(CNC2CCCC2)cc(Cl)c1OCc1ccccc1`, the IC50 is > 64 µM (inactive).

Consider `O=C(/C=C/Nc1ccc(F)c(Cl)c1)c1ccco1`, for which the IC50 was > 64 µM (inactive).

`COc1cc(CNC(C)c2ccccc2)cc(Br)c1OCc1ccc(F)cc1` (stereo not drawn): the IC50 was > 64 µM (inactive). On to `Cc1ccc(CSc2nnc(-c3ccco3)o2)cc1`, for which the IC50 is > 64 µM (inactive). Consider `O=C(/C=C/Nc1ccccc1F)c1cccs1`, for which the IC50 was > 64 µM (inactive). On the same count and under the same terms, with `Clc1ccccc1-c1nc(-c2ccncc2)no1` the figure was > 64 µM (inactive).

In the case of `Cc1ccc(-c2noc(-c3cccs3)n2)cc1`, the IC50 is > 64 µM (inactive). On to `Brc1ccc(CSc2nnc(-c3ccco3)o2)cc1`, for which the IC50 was > 64 µM (inactive).

As for `CCOc1cc(CNCCSc2nnnn2C)cc(Br)c1OCc1ccc(F)cc1`, the IC50 is > 64 µM (inactive). Take `O=C(Nc1nc2c(ccc3ccccc32)s1)c1ccco1`: the IC50 is > 64 µM (inactive). `Clc1ccc(Nc2nc(-c3cccs3)cs2)nc1`: the IC50 was > 64 µM (inactive).

For `O=C(/C=C/c1cccs1)c1ccc(Br)cc1`, the IC50 was > 64 µM (inactive). Consider `CCOc1cc(CNC2CCCC2)cc(Cl)c1OCc1ccc(F)cc1`, for which the IC50 is > 64 µM (inactive).

Take `Clc1ccccc1-c1nnc(-c2ccccc2Cl)o1`: the IC50 was > 64 µM (inactive). Take `c1ccc(SCc2cc(-c3ccccc3)no2)cc1`: the IC50 is > 64 µM (inactive). Same read-out and setting: for `c1ccc(-c2csc(-c3ccncc3)n2)cc1` the value was > 64 µM (inactive); for `CCc1ccc(-c2nc(-c3ccncc3)no2)cc1`, > 64 µM (inactive); for `Brc1ccc(CSc2nnc(-c3cccnc3)o2)cc1`, > 64 µM (inactive). For the compound `O=C(Nc1ccc(CN2CCOCC2)cc1)c1cc2ccccc2o1`, the IC50 is > 64 µM (inactive).

Turning to `CCOc1ccc(-c2nc(-c3cccnc3)no2)cc1`, the IC50 is > 64 µM (inactive). On the same count and under the same terms, with `CSc1cccc(NC(=O)c2cccc3cccnc23)c1` the figure was > 64 µM (inactive).
